Consider 27 compounds from US20260306502A1, “MITOCHONDRIAL UNCOUPLERS FOR TREATMENT OF METABOLIC DISEASES AND CANCER” (Mito Biopharma, LLC, priority 2022, published 2026).

Test system in the first series: not listed separately
The experiment in a line: PO pharmacokinetic study, oral exposure (Example B3). It is filed as in vivo. Conditions: blood, po, 10 mg/kg, 24 hr. The procedure: The blood concentration of the compound was then determined at 0 (pre-dosing), 5 min, 15 min, 30 min, 1 hr, 2 hr, 4 hr, 8 hr, 24 hr time points by LC-MS/MS analysis (See Tables 1 and 2, vide supra).
A word on the AUC(0-t): it is the area under the concentration-time curve up to a stated or last time point. High values mean high exposure, low ones low exposure. The compound `COCCOCc1cc(Cl)cc(C(=O)Nc2nc3ccc(C(F)(F)F)cc3s2)c1O` [Compound 2, 5-chloro-2-hydroxy-3-((2-methoxyethoxy)methyl)-N-(6-(trifluoromethyl)benzo[d]thiazol-2-yl)benzamide] gave an AUC(0-t) at 24 h of 485 µg·h/mL.

The same series, now with this note: blood, po, 20 mg/kg, 24 hr.
Compound `O=C(Nc1nc2ccc(C(F)(F)F)cc2s1)c1cc(Cl)ccc1O` [Compound 31 in WO 2016/081599, reference compound] came in with an AUC(0-t) at 24 h of roughly 2.4 µg·h/mL.

The series is the same for the next values; noted with them: blood, po; 10 mg/kg gavage, 24 hrs.
For orientation: AUC means concentration integrated over time. Higher therefore signals high exposure. The compound `COCCOCc1cc(Cl)cc(C(=O)Nc2nc3ccc(C(F)(F)F)cc3s2)c1O` [Compound 2, 5-chloro-2-hydroxy-3-((2-methoxyethoxy)methyl)-N-(6-(trifluoromethyl)benzo[d]thiazol-2-yl)benzamide] showed an AUC at 24 h greater than 120 µg·h/mL.

Another series relates to C2C12 cells. Put plainly: Mitochondrial uncoupling activity by oxygen consumption rate (OCR) assay, Seahorse, in presence of oligomycin. It is filed as cell-based, mouse. Particulars: Mus musculus, C2C12; in the presence of oligomycin 2.5 μM; read-out: COCR-min: minimal concentration increasing OCR in the presence of oligomycin. The procedure:
By definition, mitochondrial uncoupling is the decoupling of mitochondrial electron transport chain activity (mitochondrial oxidation) from ATP synthesis by mitochondrial ATP synthase. Technically, mitochondrial uncoupling activity is defined by the ability of a chemical compound to induce oxygen consumption of cells or isolated mitochondria in the presence of a mitochondrial ATP synthase inhibitor such as oligomycin. Accordingly, mitochondrial uncoupling activity was determined by oxygen consumption rate assay with a Seahorse XF96 or a Seahorse XF24 instrument following the vendor's instruction, using mouse myoblast C2C12 cells grown in a medium containing 10% fetal bovine serum. OCR was measured stepwise under the following conditions: first under normal growth conditions; then. OCR was measured after oligomycin was added to reach a final concentration of 2.5 μM); then OCR was measured after the compound was further added at varying concentrations. Finally, rotenone and antimycin A were added to confirm that the measurement was mitochondrial oxygen consumption (rotenone and […] mitochondrial electron transport chain inhibitors).
COCR-min the minimal concentration required for each compound to induce OCR in the presence of oligomycin, of disclosed compounds, was also determined by varying the final concentration of the compound added to the Seahorse OCR analysis experiment as described above (FIG. 2, varying testing compound concentration). Table 8 summarizes the mitochondrial uncoupling activity of disclosed compounds, as represented by COCR-min.
Consider `COCCOCc1cc(Cl)cc(C(=O)Nc2nc3ccc(C(F)(F)F)cc3s2)c1O` [Compound 2, 5-chloro-2-hydroxy-3-((2-methoxyethoxy)methyl)-N-(6-(trifluoromethyl)benzo[d]thiazol-2-yl)benzamide], for which the minimal effective concentration was less than 5 µM.

With `COCCOCc1cc(C(F)(F)F)cc2sc(NC(=O)c3cc(Cl)cc(CN(CCOC)CCOC)c3O)nc12` [Compound 70, 3-((bis(2-methoxyethyl)amino)methyl)-5-chloro-2-hydroxy-N-(4-((2-methoxyethoxy)methyl)-6-(trifluoromethyl)benzo[d]thiazol-2-yl)benzamide], the minimal effective concentration was less than 5 µM.

For `Cc1cc(Cl)cc(C(=O)Nc2nc3c(COCCN4CCN(C)CC4)cc(C(F)(F)F)cc3s2)c1O` [Compound 75, 5-chloro-2-hydroxy-3-methyl-N-(4-((2-(4-methylpiperazin-1-yl)ethoxy)methyl)-6-(trifluoromethyl)benzo[d]thiazol-2-yl)benzamide], the minimal effective concentration is less than 5 µM.

Take `C[C@@H]1CN(Cc2cc(Cl)cc(C(=O)Nc3nc4c(COCCN5CCN(C)CC5)cc(C(F)(F)F)cc4s3)c2O)C[C@H](C)O1` [Compound 76, 5-chloro-3-((cis-2,6-dimethylmorpholino)methyl)-2-hydroxy-N-(4-((2-(4-methylpiperazin-1-yl)ethoxy)methyl)-6-(trifluoromethyl)benzo[d]thiazol-2-yl)benzamide]: the minimal effective concentration is less than 5 µM.

As for `Cc1cc(Cl)cc(C(=O)Nc2nc3c(COCc4ccc(Cl)cc4)cc(C(F)(F)F)cc3s2)c1O` [Compound 82, 5-chloro-N-(4-(((4-chlorobenzyl)oxy)methyl)-6-(trifluoromethyl)benzo[d]thiazol-2-yl)-2-hydroxy-3-methylbenzamide], the minimal effective concentration was less than 5 µM.

As for `Cc1cc(Cl)cc(C(=O)Nc2nc3c(COCc4ccccc4)cc(C(F)(F)F)cc3s2)c1O` [Compound 84, N-(4-((benzyloxy)methyl)-6-(trifluoromethyl)benzo[d]thiazol-2-yl)-5-chloro-2-hydroxy-3-methylbenzamide], the minimal effective concentration was less than 5 µM.

On to `Cc1cc(Cl)cc(C(=O)Nc2nc3c(COCCO)cc(C(F)(F)F)cc3s2)c1O` [Compound 88, 5-chloro-2-hydroxy-N-(4-((2-hydroxyethoxy)methyl)-6-(trifluoromethyl)benzo[d]thiazol-2-yl)-3-methylbenzamide], for which the minimal effective concentration was in the range of 5 to 10 µM.

For `COc1ccc(COCc2cc(C(F)(F)F)cc3sc(NC(=O)c4cc(Cl)cc(C)c4O)nc23)cc1` [Compound 89, 5-chloro-2-hydroxy-N-(4-(((4-methoxybenzyl)oxy)methyl)-6-(trifluoromethyl)benzo[d]thiazol-2-yl)-3-methylbenzamide], the minimal effective concentration is less than 5 µM.

Consider `Cc1cc(Cl)cc(C(=O)Nc2nc3c(COCCNS(C)(=O)=O)cc(C(F)(F)F)cc3s2)c1O` [Compound 91, 5-chloro-2-hydroxy-3-methyl-N-(4-((2-(methylsulfonamido)ethoxy)methyl)-6-(trifluoromethyl)benzo[d]thiazol-2-yl)benzamide], for which the minimal effective concentration is less than 5 µM.

For `C[C@@H]1CN(Cc2cc(Cl)cc(C(=O)Nc3nc4c(COCCNS(C)(=O)=O)cc(C(F)(F)F)cc4s3)c2O)C[C@H](C)O1` [Compound 92, 5-chloro-3-((cis-2,6-dimethylmorpholino)methyl)-2-hydroxy-N-(4-((2-(methylsulfonamido)ethoxy)methyl)-6-(trifluoromethyl)benzo[d]thiazol-2-yl)benzamide], the minimal effective concentration was less than 5 µM.

Take `COCCN(CCOC)Cc1cc(Cl)cc(C(=O)Nc2nc3c(COCCNS(C)(=O)=O)cc(C(F)(F)F)cc3s2)c1O` [Compound 93, 3-((bis(2-methoxyethyl)amino)methyl)-5-chloro-2-hydroxy-N-(4-((2-(methylsulfonamido)ethoxy)methyl)-6-(trifluoromethyl)benzo[d]thiazol-2-yl)benzamide]: the minimal effective concentration was less than 5 µM.

For `O=C(Nc1nc2ccc(C(F)(F)F)cc2s1)c1cc(Cl)cc(CN2CCCC(F)C2)c1O` (centres unmarked) [Example 58, 5-chloro-3-((3-fluoropiperidin-1-yl)methyl)-2-hydroxy-N-(6-(trifluoromethyl)benzo[d]thiazol-2-yl)benzamide], the minimal effective concentration is less than 5 µM.

As for `O=C(Nc1nc2ccc(C(F)(F)F)cc2s1)c1cc(Cl)cc(CN2CCCC(F)(F)C2)c1O` [Example 59, 5-chloro-3-((3,3-difluoropiperidin-1-yl)methyl)-2-hydroxy-N-(6-(trifluoromethyl)benzo[d]thiazol-2-yl)benzamide], the minimal effective concentration is less than 5 µM.

Take `O=C(Nc1nc2ccc(C(F)(F)F)cc2s1)c1cc(Cl)cc(CN2CCC(F)CC2)c1O` [Example 60, 5-chloro-3-((4-fluoropiperidin-1-yl)methyl)-2-hydroxy-N-(6-(trifluoromethyl)benzo[d]thiazol-2-yl)benzamide]: the minimal effective concentration was less than 5 µM.

Regarding `O=C(Nc1nc2ccc(C(F)(F)F)cc2s1)c1cc(Cl)cc(CN2CCCC(C(F)(F)F)C2)c1O` (centres unmarked) [Example 61, 5-chloro-2-hydroxy-N-(6-(trifluoromethyl)benzo[d]thiazol-2-yl)-3-((3-(trifluoromethyl)piperidin-1-yl)methyl)benzamide], the minimal effective concentration was less than 5 µM.

Take `O=C(Nc1nc2ccc(C(F)(F)F)cc2s1)c1cc(Cl)cc(CN2CCC(F)(F)CC2)c1O` [Example 62, 5-chloro-3-((4,4-difluoropiperidin-1-yl)methyl)-2-hydroxy-N-(6-(trifluoromethyl)benzo[d]thiazol-2-yl)benzamide]: the minimal effective concentration is less than 5 µM.

Turning to `C[C@@H]1CN(Cc2cc(Cl)cc(C(=O)Nc3nc4c(CNS(C)(=O)=O)cc(C(F)(F)F)cc4s3)c2O)C[C@H](C)O1` [Example 72, 5-chloro-3-((cis-2,6-dimethylmorpholino)methyl)-2-hydroxy-N-(4-(methylsulfonamidomethyl)-6-(trifluoromethyl)benzo[d]thiazol-2-yl)benzamide], the minimal effective concentration is less than 5 µM.

In the case of `COCCN(CCOC)Cc1cc(Cl)cc(C(=O)Nc2nc3c(CNS(C)(=O)=O)cc(C(F)(F)F)cc3s2)c1O` [Example 74, 3-((bis(2-methoxyethyl)amino)methyl)-5-chloro-2-hydroxy-N-(4-(methylsulfonamidomethyl)-6-(trifluoromethyl)benzo[d]thiazol-2-yl)benzamide], the minimal effective concentration is less than 5 µM.

As to `C[C@@H]1CN(Cc2cc(Cl)cc(C(=O)Nc3nc4c(CN5CCN(C)CC5)cc(C(F)(F)F)cc4s3)c2O)C[C@H](C)O1` [Example 79, 5-chloro-3-((cis-2,6-dimethylmorpholino)methyl)-2-hydroxy-N-(4-((4-methylpiperazin-1-yl)methyl)-6-(trifluoromethyl)benzo[d]thiazol-2-yl)benzamide], the minimal effective concentration is less than 5 µM.

For `CCC(=O)NCc1cc(C(F)(F)F)cc2sc(NC(=O)c3cc(Cl)cc(C)c3O)nc12` [Example 90, 5-chloro-2-hydroxy-3-methyl-N-(4-(propionamidomethyl)-6-(trifluoromethyl)benzo[d]thiazol-2-yl)benzamide], the minimal effective concentration lay in the range of 5 to 10 µM.

On to `Cc1cc(Cl)cc(C(=O)Nc2nc3c(C4CCN(C)CC4)cc(C(F)(F)F)cc3s2)c1O` [Example 94, 5-chloro-2-hydroxy-3-methyl-N-(4-(1-methylpiperidin-4-yl)-6-(trifluoromethyl)benzo[d]thiazol-2-yl)benzamide], for which the minimal effective concentration was less than 5 µM.

For `Cc1cc(Cl)cc(C(=O)Nc2nc3c(CN4CCOCC4)cc(C(F)(F)F)cc3s2)c1O` [Example 95, 5-chloro-2-hydroxy-3-methyl-N-(4-(morpholinomethyl)-6-(trifluoro-methyl)benzo[d]thiazol-2-yl)benzamide], the minimal effective concentration is less than 5 µM.

With `Cc1cc(Cl)cc(C(=O)Nc2nc3c(CN(C)C)cc(C(F)(F)F)cc3s2)c1O` [Example 96, 5-chloro-N-(4-((dimethylamino)methyl)-6-(trifluoromethyl)benzo[d]thiazol-2-yl)-2-hydroxy-3-methylbenzamide], the minimal effective concentration was less than 5 µM.

On to `O=C(Nc1ccc(C(F)(F)F)nc1)c1cc(Cl)cc(C2CCOC2)c1O` (centres unmarked) [Example 98, 5-chloro-2-hydroxy-3-(tetrahydrofuran-3-yl)-N-(6-(trifluoromethyl)pyridin-3-yl)benzamide], for which the minimal effective concentration was greater than 10 µM.

The same series, now with this note: Mus musculus, C2C12; minimal concentration leading to OCR increase; read-out: Activity (Cmin-OCR).
For `COCOCc1cc(Cl)cc(C(=O)Nc2nc3ccc(C(F)(F)F)cc3s2)c1O` [drawing 255], the minimal effective concentration is 2.5 µM.

As for `COCCOCc1cc(Cl)cc(C(=O)Nc2nc3ccc(C(F)(F)F)cc3s2)c1O` [drawing 256], the minimal effective concentration turned out to be 2.5 µM.
